Source: BindingDB's records for doi:10.1016/j.ejmech.2020.113045 (Rheinische Friedrich-Wilhelms-University of Bonn, 2021)

Columns and labels:
[1] = Inhibition of ABCG2 (unknown origin) expressed in MDCK-II cells assessed as potentiation of SN-38-induced cytotoxicity measured after 72 hrs by MTT assay
[2] = Inhibition of ABCB1 (unknown origin) expressed in human A2780 ADR cells assessed as potentiation of daunorubicin-induced cytotoxicity measured after 72 hrs by MTT assay

| Compound | EC50 [1] | EC50 [2] |
| --- | --- | --- |
| N#Cc1ccc(Nc2cc(Nc3ccccc3)nc(-c3ccccc3)n2)cc1 | 44 nM | – |
| N#Cc1ccc(Nc2cc(NCc3cccnc3)nc(-c3ccccc3)n2)cc1 | 44 nM | – |
| N#Cc1ccc(Nc2cc(Nc3ccccc3O)nc(-c3ccccc3)n2)cc1 | 147 nM | 34.4 µM |
| N#Cc1ccc(Nc2cc(Nc3ccc(C#N)cc3)nc(-c3ccccc3)n2)cc1 | 231 nM | – |
| N#Cc1ccc(Nc2cc(Nc3ccc(O)cc3)nc(-c3ccccc3)n2)cc1 | 171 nM | – |
| CNc1cc(Nc2ccc(C#N)cc2)nc(-c2ccccc2)n1 | 22 nM | – |
| N#Cc1ccc(Nc2cc(Nc3cccc(O)c3)nc(-c3ccccc3)n2)cc1 | 181 nM | – |
| CC(C)Nc1cc(Nc2ccc(C#N)cc2)nc(-c2ccccc2)n1 | 18 nM | – |
| CCCNc1cc(Nc2ccc(C#N)cc2)nc(-c2ccccc2)n1 | 15 nM | – |
| N#Cc1ccc(Nc2cc(NCc3ccccn3)nc(-c3ccccc3)n2)cc1 | 16 nM | – |
| N#Cc1ccc(Nc2cc(NCc3ccccc3)nc(-c3ccccc3)n2)cc1 | 26 nM | – |
| N#Cc1ccc(Nc2cc(NCCCCc3ccccc3)nc(-c3ccccc3)n2)cc1 | 187 nM | – |
| N#Cc1ccc(Nc2cc(NCCCc3ccccc3)nc(-c3ccccc3)n2)cc1 | 67 nM | – |
| N#Cc1ccc(Nc2cc(NCc3ccncc3)nc(-c3ccccc3)n2)cc1 | 73 nM | – |
| N#Cc1ccc(Nc2cc(-c3ccccc3)nc(-c3ccccc3)n2)cc1 | 41 nM | – |
| CCCCNc1cc(Nc2ccc(C#N)cc2)nc(-c2ccccc2)n1 | 30 nM | – |
